Legend:
[1] = tested on: primary murine aortic smooth muscle cells; assay: Murine smooth muscle cell migration (scratch wound, CML AGE); assay type: cell-based, C57BL/6 mice; settings: 1 μM pre-treatment 1.5 hours, CML AGE 100 μg/ml, 7 hrs
Description: Effects of CB-1 to CB-14 on Murine Smooth Muscle Cell Migration. Primary murine aortic smooth muscles retrieved from wild type C57BL/6 mice were grown to 90% confluency in medium containing 10% fetal bovine serum. Cells were serum starved for 16 hrs during which time fetal bovine serum was replaced with 0.1% bovine serum albumin. Following this period of serum starvation, cells were pre-treated for 1.5 hours with the indicated Chembridge library hit denoted #1-14 at a concentration of 1 μM. At the end of that time, compounds were removed and cell monolayers were vertically scratched with a pipet tip to create a “wound” and then RAGE ligand carboxy methyl lysine human serum albumin (CML AGE), 100 μg/ml, was added for 7 hrs. Photographs of the monolayer were taken at time 0 (time of scratch/CML AGE) and at 7 hrs. The ingrowth of the cells was then noted and % area ingrowth was calculated comparing ingrowth at baseline to that at 7 hrs. N=triplicate experiments. * indicates p<0.05

[2] = tested on: primary human aortic smooth muscle cells; assay: Human smooth muscle cell migration (scratch wound, CML AGE); assay type: cell-based; settings: 1 μM pre-treatment 1.5 hours, CML AGE 100 μg/ml, 7 hrs
Description: Effects of CB-1 to CB-14 on Human Smooth Muscle Cell Migration. Primary human aortic smooth muscles were purchased from Lonza and were grown to 90% confluency in medium containing 10% fetal bovine serum. Cells were serum starved for 16 hrs during which time fetal bovine serum was replaced with 0.1% bovine serum albumin. Following this period of serum starvation, cells were pre-treated for 1.5 hours with the indicated Chembridge library hit denoted #1-14 at a concentration of 1 μM. At the end of that time, compounds were removed and cell monolayers were vertically scratched with a pipet tip to create a “wound” and then RAGE ligand carboxy methyl lysine human serum albumin (CML AGE), 100 μg/ml, was added for 7 hrs. Photographs of the monolayer were taken at time 0 (time of scratch/CML AGE) and at 7 hrs. The ingrowth of the cells was then noted and % area ingrowth was calculated comparing ingrowth at baseline to that at 7 hrs. N=triplicate experiments. * indicates p<0.05 (FIG. 8)

[3] = tested on: delayed type hypersensitivity (DTH) mediated inflammation in mice; assay: In vivo model of delayed type hypersensitivity (DTH), paw inflammation score; set-up: species or system CF-1 mice; settings: 5 mg/kg intraperitoneal, four doses; for Inflammation Score Compound ± SEM: paw scored 16 hrs after mBSA, scale 1-5, n=5 mice/group; for reduction in inflammation score in the paw compared to vehicle: vs DMSO vehicle
Description: Effects of CB Compounds 1-14 on an in vivo model of delayed type hypersensitivity (DTH). Female CF-1 mice were purchased from the Jackson Laboratories (Bar Harbor Me.) and after a period of at least 3 days acclimation in the animal facility, mice were sensitized over the left inguinal lymph node with an emulsion (0.1 ml) containing methylated bovine serum albumin (mBSA, Sigma, 25 mg/ml), NaCl (0.9%), dextran 5-40×10^6 MW; 50 mg/ml (Sigma), and Freunds' incomplete adjuvant (50%). On day 19 and 20 after sensitization, mice received an intraperitoneal dose of one of CB compounds 1-14 at 5 mg/kg/body weight mouse for a total of four doses. Control animals received equal volumes of compound diluent, DMSO. Immediately following the final compound injection (4th dose), mBSA (0.4 mg/ml; 0.050 ml) was injected into the left plantar hind paw. The paw was scored 16 hrs later by 2 investigators naive to the experimental condition and according to the following criteria: 1=absence of any inflammation; 2=slight rubor and edema; 3=moderate rubor and edema with skin wrinkles; 4=severe rubor and edema without skin wrinkles and 5=severe rubor and edema with toe spreading. See also Hofmann et al. (1999, Cell 97:889-901), the entire content of which is incorporated herein in its entirety. In these experiments, n=5 mice/group.

[4] = molecular target: RAGE tail (Homo sapiens (Human), UniProt Q15109); assay: RAGE tail fluorescence titration (Kd determination); settings: binding to RAGE tail
Description: Binding affinities of small molecules for either CT-RAGE or FH1 are determined by performing fluorescence titrations to generate binding isotherms and standard SPR experiments.
A number of representative amino and amido compounds of this invention were or can be tested for their inhibitory activity.
(§1) Fluorescence quenching was used to determine binding.
A number of representative heterocylic compounds of this invention were or can be tested for their inhibitory activity.
as §1, §1

[5] = molecular target: RAGE tail (ctRAGE) binding to mDial (Homo sapiens (Human), UniProt Q15109); assay: Primary screen: binding of GFP RAGE tail to mDial at one concentration (10 uM); settings: 10 μM compound
Description: Primary screening was a two-step process in which compounds were first tested in a high throughput assay at one concentration (10 uM). Compounds that reduced binding of RAGE tail (ctRAGE) by at least 50% were then selected and subjected to 4-point dose response (10 uM, 1 uM, 0.1 uM and 0.01 uM) (FIGS. 1, 4, and 5).
Step 1. Add 50 μl anti-mDial (1:160 dilution in 0.1M NaHCO3 pH 9.6)/well. Incubate overnight at 4° C.
Step 2. Use the plate washer to aspirate anti-mDial and wash plates 4× with PBS 100 μl per well per wash.
Step 3. Add 180 μl 3% BSA in 1×PBS. Incubate for 1.5 hrs at room temperature
Step 4. Use the plate washer to aspirate the blocking solution and wash 5× with PBS 300 μl per well.
Step 5. Add 50 μl of mDial containing lysate (85 μg) and incubate at RT for 3 hours.
Step 6. Aspirate the lysate and wash the plate 5× (100 μl) on the plate washer.
Step 7. Add 25 μl PBS to the wells.
Step 8. Add 0.5 μL compound per well.
Step 9. Add 24.5 μL GFP RAGE tail (125 nM) into each well for 2 hrs at room temperature.
Step 10. Aspirate and wash 5× with PBS (100 μL) on the plate washer.
Step 11. Add 100 ul PBS in each well.
Step 12. Detection: Read on fluorescence plate reader excitation 435 nm and 485 nm emission
Compounds that blocked the binding of RAGE tail to mDial by 50% or more were subjected to 4 point dose response: 10 μM, 1 μM, 0.1 μM and 0.01 μM.

Sequence of RAGE tail (Q15109 364-404): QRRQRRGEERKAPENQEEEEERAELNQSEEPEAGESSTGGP
Sequence of RAGE tail (ctRAGE) binding to mDial (Q15109 364-404): as above

## Cc1nc2ccccc2n1CC(O)Cn1c2ccccc2c2ccccc21 (centres unmarked) [CB-3]
[1]
  RAGE ligand CML AGE-mediated ingrowth (migration): prevent RAGE ligand CML AGE-mediated ingrowth (migration)
[2]
  RAGE ligand CML AGE-mediated ingrowth (migration): prevent RAGE ligand CML AGE-mediated ingrowth (migration)
[3]
  Inflammation Score Compound ± SEM: 2.2 ± 0.45/3.4 ± 0.55
  reduction in inflammation score in the paw compared to vehicle: statistically significant reduction in inflammation score
[4]
  Kd: 18 ± 1 nM

## CC(=O)Nc1ccc(C(=O)Nc2nccs2)cc1 [CD-1]
[5]
  inhibition at 10 µM: 31%

## Oc1cccc(Nc2nc(-c3ccc(F)cc3F)cs2)c1 [CB-5]
[1]
  RAGE ligand CML AGE-mediated ingrowth (migration): prevent RAGE ligand CML AGE-mediated ingrowth (migration)
[2]
  RAGE ligand CML AGE-mediated ingrowth (migration): prevent RAGE ligand CML AGE-mediated ingrowth (migration)
[3]
  Inflammation Score Compound ± SEM: 3.6 ± 0.55/3.4 ± 0.55

## CC1=NN(c2nc3ccccc3[nH]2)C(=O)C1CCC(C)C (centres unmarked) [CB-10]
[1]
  RAGE ligand CML AGE-mediated ingrowth (migration): prevent RAGE ligand CML AGE-mediated ingrowth (migration)
[2]
  RAGE ligand CML AGE-mediated ingrowth (migration): prevent RAGE ligand CML AGE-mediated ingrowth (migration)
[3]
  Inflammation Score Compound ± SEM: 3.2 ± 0.84/3.6 ± 0.55

## O=C(O)c1ccccc1OCC(O)Cn1cnc2ccccc21 (centres unmarked) [CD-19]
[5]
  inhibition at 10 µM: 24%

## COc1ccccc1-c1cc(C(F)(F)F)nc(NC2CCCCC2)n1 [CD-21]
[5]
  inhibition at 10 µM: 18%

## C=CCOc1ccc2c(C(F)(F)F)cc(=O)oc2c1 [CB-2]
[1]
  RAGE ligand CML AGE-mediated ingrowth (migration): prevent RAGE ligand CML AGE-mediated ingrowth (migration)
[2]
  RAGE ligand CML AGE-mediated ingrowth (migration): prevent RAGE ligand CML AGE-mediated ingrowth (migration)
[3]
  Inflammation Score Compound ± SEM: 3.2 ± 0.45/3.4 ± 0.55
[4]
  Kd: 6.5 ± 1 nM

## CN(Cc1ccccc1)CC(O)Cn1cnc2ccccc21 (centres unmarked) [CD-7]
[5]
  inhibition at 10 µM: 31%

## OC(COc1ccccc1)Cn1cnc2ccccc21 (centres unmarked) [CD-28]
[5]
  inhibition at 10 µM: 37%

## COC(=O)c1cc(OC)c(OC)cc1NC(=O)C1Oc2ccccc2OC1C (centres unmarked) [CB-8]
[1]
  RAGE ligand CML AGE-mediated ingrowth (migration): prevent RAGE ligand CML AGE-mediated ingrowth (migration)
[2]
  RAGE ligand CML AGE-mediated ingrowth (migration): prevent RAGE ligand CML AGE-mediated ingrowth (migration)
[3]
  Inflammation Score Compound ± SEM: 3.4 ± 0.55/3.6 ± 0.55
[4]
  Kd: 2 ± 0.5 nM

## Cn1c(=O)n(CC(O)Cn2c3ccccc3c3ccccc32)c2ccccc21 (centres unmarked) [CD-6]
[4]
  Kd: 4 nM

## CC1=NN(c2nc3ccccc3s2)C(=O)C1CCC(C)C (centres unmarked) [CD-20]
[5]
  inhibition at 10 µM: 48%

## COC(=O)c1cc(-c2ccc(NC(C)=O)cc2)nc2ccccc12 [CB-12]
[1]
  RAGE ligand CML AGE-mediated ingrowth (migration): prevent RAGE ligand CML AGE-mediated ingrowth (migration)
[2]
  RAGE ligand CML AGE-mediated ingrowth (migration): prevent RAGE ligand CML AGE-mediated ingrowth (migration)
[3]
  Inflammation Score Compound ± SEM: 2.4 ± 0.55/3.4 ± 0.55
  reduction in inflammation score in the paw compared to vehicle: statistically significant reduction in inflammation score
[4]
  Kd: > 100000 nM

## OC(Cn1ccnc1)Cn1c2ccccc2c2ccccc21 (centres unmarked) [CD-4]
[4]
  Kd: 75 nM

## OC(CN(c1ccccc1)c1ccccc1)Cn1cnc2ccccc21 (centres unmarked) [CD-18]
[5]
  inhibition at 10 µM: 45%

## COc1ccccc1-c1cc(C(F)(F)F)nc(N2CCOCC2)n1 [CB-7]
[1]
  RAGE ligand CML AGE-mediated ingrowth (migration): prevent RAGE ligand CML AGE-mediated ingrowth (migration)
[2]
  RAGE ligand CML AGE-mediated ingrowth (migration): prevent RAGE ligand CML AGE-mediated ingrowth (migration)
[3]
  Inflammation Score Compound ± SEM: 3.4 ± 0.55/3.6 ± 0.55
[4]
  Kd: 0.55 ± 0.05 nM

## Cc1c(Cl)cccc1NC(=O)CNC(=O)c1ccccc1F [CB-13]
[1]
  RAGE ligand CML AGE-mediated ingrowth (migration): prevent RAGE ligand CML AGE-mediated ingrowth (migration)
[2]
  RAGE ligand CML AGE-mediated ingrowth (migration): prevent RAGE ligand CML AGE-mediated ingrowth (migration)
[3]
  Inflammation Score Compound ± SEM: 3.4 ± 0.55/3.4 ± 0.55
[4]
  Kd: 123 ± 1 nM

## COc1cc(SC)ccc1C(=O)Nc1cccc(C)n1 [CB-1]
[1]
  RAGE ligand CML AGE-mediated ingrowth (migration): no inhibitory effect
[2]
  RAGE ligand CML AGE-mediated ingrowth (migration): no inhibitory effect
[3]
  Inflammation Score Compound ± SEM: 3.4 ± 0.55/3.4 ± 0.55
[4]
  Kd: 4 ± 1 nM

## Cc1nccn1CC(O)Cn1c2ccccc2c2ccccc21 (centres unmarked) [CD-29]
[4]
  Kd: 78 nM

## Cc1cc2n(c1)CCn1c(C)ccc1-2 [CB-11]
[1]
  RAGE ligand CML AGE-mediated ingrowth (migration): prevent RAGE ligand CML AGE-mediated ingrowth (migration)
[2]
  RAGE ligand CML AGE-mediated ingrowth (migration): prevent RAGE ligand CML AGE-mediated ingrowth (migration)
[3]
  Inflammation Score Compound ± SEM: 3.2 ± 0.45/3.4 ± 0.55
[4]
  Kd: 1.2 ± 0.5 nM

## COc1cc(NC(C)=O)c(Cl)cc1C(=O)Nc1nccs1 [CB-6]
[1]
  RAGE ligand CML AGE-mediated ingrowth (migration): prevent RAGE ligand CML AGE-mediated ingrowth (migration)
[2]
  RAGE ligand CML AGE-mediated ingrowth (migration): prevent RAGE ligand CML AGE-mediated ingrowth (migration)
[3]
  Inflammation Score Compound ± SEM: 3.0 ± 0.71/3.6 ± 0.55

## Oc1ccc(NCc2ccc(Br)cc2)cc1 [CB-14]
[1]
  RAGE ligand CML AGE-mediated ingrowth (migration): prevent RAGE ligand CML AGE-mediated ingrowth (migration)
[2]
  RAGE ligand CML AGE-mediated ingrowth (migration): prevent RAGE ligand CML AGE-mediated ingrowth (migration)
[3]
  Inflammation Score Compound ± SEM: 3.2 ± 0.45/3.4 ± 0.55
[4]
  Kd: 1.4 ± 0.3 nM

## Cc1ccc(S(=O)(=O)N(C)C(F)F)cc1 [CB-9]
[1]
  RAGE ligand CML AGE-mediated ingrowth (migration): prevent RAGE ligand CML AGE-mediated ingrowth (migration)
[2]
  RAGE ligand CML AGE-mediated ingrowth (migration): prevent RAGE ligand CML AGE-mediated ingrowth (migration)
[3]
  Inflammation Score Compound ± SEM: 3.6 ± 0.55/3.6 ± 0.55
[4]
  Kd: 17300 ± 500 nM

## OC(Cn1ccc2ccccc21)Cn1cnc2ccccc21 (centres unmarked) [CB-4]
[1]
  RAGE ligand CML AGE-mediated ingrowth (migration): prevent RAGE ligand CML AGE-mediated ingrowth (migration)
[2]
  RAGE ligand CML AGE-mediated ingrowth (migration): prevent RAGE ligand CML AGE-mediated ingrowth (migration)
[3]
  Inflammation Score Compound ± SEM: 3.0 ± 0.71/3.4 ± 0.55
[4]
  Kd: 2 ± 1 nM

Source: patent US10729695B2, “Amino, amido and heterocyclic compounds as modulators of RAGE activity and uses thereof” (The Research Foundation for the State University of New York, priority 2013, dated 2020)
